# Assays:
# surinam grass = assay: Test B pre/postemergence surinam grass; assay type: in vivo, Brachiaria decumbens
# Method in brief: (§1)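 Response is a visual 0-to-10 score relative to untreated plants, where 0 means no effect and 10 means complete control, taken twelve to sixteen days after application. Treatments went onto soil at planting and onto foliage of 1- to 4-leaf plants, using a surfactant-containing non-phytotoxic solvent.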
# crabgrass = assay: Test B pre/postemergence crabgrass; assay type: in vivo, Digitaria sanguinalis
# Method in brief: as §1
# corn = assay: Test B pre/postemergence corn; assay type: in vivo, Zea mays
# Method in brief: as §1
# sugar beet = assay: Test B pre/postemergence sugar beet; assay type: in vivo, Beta vulgaris
# Method in brief: as §1
# soybean = assay: Test B pre/postemergence soybean; assay type: in vivo, Glycine max
# Method in brief: as §1
# cocklebur = assay: Test B pre/postemergence cocklebur; assay type: in vivo, Xanthium strumarium
# Method in brief: as §1
# morningglory = assay: Test B pre/postemergence morningglory; assay type: in vivo, Ipomoea hederacea
# Method in brief: as §1
# rice = assay: Test B flood test rice; assay type: in vivo, Oryza sativa
# Method in brief: (§2)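 Flood test on plants grown to the 2-leaf stage; treated plants kept in greenhouse twelve to sixteen days, then visually rated against controls on a 0 (no effect) to 10 (complete control) scale.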
# rape = assay: Test B pre/postemergence rape; assay type: in vivo, Brassica napus
# Method in brief: as §1
# smallflower flatsedge = assay: Test B flood test smallflower flatsedge; assay type: in vivo, Cyperus difformis
# Method in brief: as §2
# pigweed = assay: Test B pre/postemergence pigweed; assay type: in vivo, Amaranthus retroflexus
# Method in brief: as §1
# wild oat = assay: Test B pre/postemergence wild oat; assay type: in vivo, Avena fatua
# Method in brief: as §1
# bedstraw = assay: Test B pre/postemergence bedstraw; assay type: in vivo, Galium aparine
# Method in brief: as §1
# bamyardgrass = assay: Test B flood test barnyardgrass; assay type: in vivo, Echinochloa crus-galli
# Method in brief: as §2
# velvetleaf = assay: Test B pre/postemergence velvetleaf; assay type: in vivo, Abutilon theophrasti
# Method in brief: as §1
# duck salad = assay: Test B flood test duck salad; assay type: in vivo, Heteranthera limosa
# Method in brief: as §2
# [1] = Preemergence, Rate 31 g/ha, visual rating, scale 0 to 10 (0 no effect, 10 complete control)
# [2] = Preemergence, Rate 62 g/ha, scale of 0 to 10 where 0 is no effect and 10 is complete control
# [3] = Preemergence, Rate 125 g/ha, 0 is no effect, 10 is complete control
# [4] = Preemergence, Rate 250 g/ha, scale 0 to 10, 0 is no effect, 10 is complete control
# [5] = Rate 31 g/ha, Postemergence, scale 0 to 10
# [6] = Rate 62 g/ha, Postemergence, scale of 0 to 10 where 0 is no effect and 10 is complete control
# [7] = Rate 125 g/ha, Postemergence, scale 0 to 10
# [8] = Rate 31 g/ha, Pre-emergence section (flood test species), scale 0 to 10
# [9] = Rate 62 g/ha, headed Pre-emergence (flood test species), scale 0 to 10 (0 no effect, 10 complete control)
# [10] = Rate 125 g/ha, Pre-emergence, flood test species, scale 0 to 10 where 0 is no effect and 10 is complete control
# [11] = Rate 250 g/ha, Pre-emergence, flood-test species, scale 0 to 10, 0 is no effect, 10 is complete control
smiles,measurement,setting,value
Cc1ccccc1-n1c(=O)on(C(=O)N(c2ccc(F)cc2)C2CCC2)c1=O [Compound 200],B. signalgrass plant response rating,surinam grass; [1],0
same,B. signalgrass plant response rating,surinam grass; [2],0
same,B. signalgrass plant response rating (0 to 10 scale),surinam grass; [3],0
same,B. signalgrass plant response rating,surinam grass; [4],0
same,B. signalgrass plant response rating,surinam grass; [5],0
same,B. signalgrass plant response rating,surinam grass; [6],0
same,B. signalgrass plant response rating,"surinam grass; Rate 125 g/ha, Postemergence, scale 0 (no effect) to 10 (complete control)",0
same,"Plant response rating, B. signalgrass","surinam grass; Rate 250 g/ha, Postemergence, scale 0 to 10, 0 is no effect, 10 is complete control",0
same,Crabgrass plant response rating,crabgrass; [1],0
same,Crabgrass plant response rating,crabgrass; [2],0
same,Crabgrass plant response rating (0 to 10 scale),crabgrass; [3],2
same,Crabgrass plant response rating,crabgrass; [4],6
same,Crabgrass plant response rating,crabgrass; [5],0
same,Crabgrass plant response rating,crabgrass; [6],0
same,Crabgrass plant response rating,crabgrass; [7],1
same,"Plant response rating (0 to 10; 0 is no effect, 10 is complete control), Crabgrass","crabgrass; Rate 250 g/ha, Postemergence",2
same,Corn plant response rating,corn; [1],0
same,Corn plant response rating,corn; [2],0
same,Corn plant response rating (0 to 10 scale),corn; [3],0
same,Corn plant response rating,corn; [4],0
same,Corn plant response rating,corn; [5],0
same,Corn plant response rating,corn; [6],0
same,Corn plant response rating,corn; [7],0
same,"Plant response rating (0 to 10; 0 is no effect, 10 is complete control), Corn","corn; Rate 250 g/ha, Postemergence",0
same,Sugarbeets plant response rating,sugar beet; [1],0
same,Sugarbeets plant response rating,sugar beet; [2],0
same,Sugarbeets plant response rating (0 to 10 scale),sugar beet; [3],0
same,Sugarbeets plant response rating,sugar beet; [4],0
same,Sugarbeets plant response rating,sugar beet; [6],0
same,Sugarbeets plant response rating,sugar beet; [7],0
same,"Plant response rating (0 to 10; 0 is no effect, 10 is complete control), Sugarbeets","sugar beet; Rate 250 g/ha, Postemergence",0
same,Soybean plant response rating,soybean; [1],0
same,Soybean plant response rating,soybean; [2],0
same,Soybean plant response rating (0 to 10 scale),soybean; [3],0
same,Soybean plant response rating,soybean; [4],0
same,Soybean plant response rating,soybean; [6],2
same,Soybean plant response rating,soybean; [7],2
same,"Plant response rating (0 to 10; 0 is no effect, 10 is complete control), Soybean","soybean; Rate 250 g/ha, Postemergence",2
same,Cocklebur plant response rating,cocklebur; [1],0
same,Cocklebur plant response rating,cocklebur; [2],0
same,Cocklebur plant response rating (0 to 10 scale),cocklebur; [3],0
same,Cocklebur plant response rating,cocklebur; [4],0
same,Cocklebur plant response rating,cocklebur; [5],0
same,Cocklebur plant response rating,cocklebur; [6],0
same,Cocklebur plant response rating,cocklebur; [7],0
same,"Plant response rating (0 to 10; 0 is no effect, 10 is complete control), Cocklebur","cocklebur; Rate 250 g/ha, Postemergence",0
same,Morningglory plant response rating,morningglory; [1],0
same,Morningglory plant response rating,morningglory; [2],0
same,Morningglory plant response rating (0 to 10 scale),morningglory; [3],0
same,Morningglory plant response rating,morningglory; [4],0
same,Morningglory plant response rating,morningglory; [5],0
same,Morningglory plant response rating,morningglory; [6],0
same,Morningglory plant response rating,morningglory; [7],0
same,"Plant response rating (0 to 10; 0 is no effect, 10 is complete control), Morningglory","morningglory; Rate 250 g/ha, Postemergence",2
same,Rice plant response rating,rice; [8],0
same,Rice plant response rating,rice; [9],0
same,Rice plant response rating,rice; [10],0
same,Rice plant response rating,rice; [11],0
same,Rape plant response rating,rape; [1],0
same,Rape plant response rating,rape; [2],0
same,Rape plant response rating (0 to 10 scale),rape; [3],0
same,Rape plant response rating,rape; [4],0
same,Rape plant response rating,rape; [5],0
same,Rape plant response rating,rape; [6],0
same,Rape plant response rating,rape; [7],0
same,"Plant response rating (0 to 10; 0 is no effect, 10 is complete control), Rape","rape; Rate 250 g/ha, Postemergence",0
same,S. Flatsedge plant response rating,smallflower flatsedge; [8],0
same,S. Flatsedge plant response rating,smallflower flatsedge; [9],0
same,S. Flatsedge plant response rating,smallflower flatsedge; [10],0
same,S. Flatsedge plant response rating,smallflower flatsedge; [11],0
same,Redroot pigweed plant response rating,pigweed; [1],0
same,Redroot pigweed plant response rating,pigweed; [2],0
same,Redroot pigweed plant response rating (0 to 10 scale),pigweed; [3],0
same,Redroot pigweed plant response rating,pigweed; [4],0
same,Redroot pigweed plant response rating,pigweed; [5],0
same,Redroot pigweed plant response rating,pigweed; [6],0
same,Redroot pigweed plant response rating,pigweed; [7],0
same,"Plant response rating (0 to 10; 0 is no effect, 10 is complete control), Redroot pigweed","pigweed; Rate 250 g/ha, Postemergence",0
same,Wild oats plant response rating,wild oat; [1],0
same,Wild oats plant response rating,wild oat; [2],0
same,Wild oats plant response rating,wild oat; [4],0
same,Wild oats plant response rating,wild oat; [6],0
same,Wild oats plant response rating,wild oat; [7],0
same,"Plant response rating (0 to 10; 0 is no effect, 10 is complete control), Wild oats","wild oat; Rate 250 g/ha, Postemergence",0
same,Bedstraw plant response rating,bedstraw; [1],0
same,Bedstraw plant response rating,bedstraw; [4],0
same,Bedstraw plant response rating,bedstraw; [5],0
same,Bedstraw plant response rating,bedstraw; [6],0
same,Bedstraw plant response rating,bedstraw; [7],0
same,"Plant response rating (0 to 10; 0 is no effect, 10 is complete control), Bedstraw","bedstraw; Rate 250 g/ha, Postemergence",0
same,Barnyardgrass plant response rating,bamyardgrass; [8],0
same,Barnyardgrass plant response rating,bamyardgrass; [9],0
same,Barnyardgrass plant response rating,bamyardgrass; [10],0
same,Barnyardgrass plant response rating,bamyardgrass; [11],0
same,Velvetleaf plant response rating,velvetleaf; [1],0
same,Velvetleaf plant response rating,velvetleaf; [2],0
same,Velvetleaf plant response rating,velvetleaf; [4],0
same,Velvetleaf plant response rating,velvetleaf; [6],0
same,Velvetleaf plant response rating,velvetleaf; [7],0
same,"Plant response rating (0 to 10; 0 is no effect, 10 is complete control), Velvetleaf","velvetleaf; Rate 250 g/ha, Postemergence",1
same,Ducksalad plant response rating,duck salad; [8],0
same,Ducksalad plant response rating,duck salad; [9],0
same,Ducksalad plant response rating,duck salad; [10],0
same,Ducksalad plant response rating,duck salad; [11],0
